# Reference: patent US8642532B2, “Excipients for protein stabilization” (priority 2007, dated 2014)
# Legend:
# BSA [1] = target: T1, BSA (Bos taurus, UniProt P02769); assay: Reduction of aggregation of BSA induced by methanol, SEC HPLC; format: physicochemical, Bovine; conditions: precipitated with PEG 3400 and methanol, re-dissolved in PBS
# T1 construct: BSA stock solution (35%, in water, 0.85% sodium chloride, from Sigma); purchased Sigma / Sigma Aldrich
# Protocol: BSA stock solution (0.050 ml, 35%, 0.85% sodium chloride, Sigma) was diluted with 0.050 ml of sodium phosphate buffer (50 mM, pH 7.4, no sodium chloride) and 0.050 ml of water (HPLC grade). A separate sample was prepared in the same way, but replacing the 0.050 ml of water using 0.050 ml of an excipient solution containing pyridoxal phosphate (represented as X2 in FIG. 1, 100 mg/ml in water, pH 7.4). To each of the two samples in test tubes were added 0.350 ml of an aqueous solution of polyethylene glycol (molecular weight 3400, 75%) to turn the mixtures cloudy, followed by addition of 0.50 ml of methanol (HPLC grade). Then the samples were centrifuged to collect the precipitates. The precipitates were re-dissolved in PBS buffer and analyzed on Size Exclusion Chromatography HPLC. Without excipient, about two thirds of BSA was found in the form of aggregates, while only a quarter of BSA appeared as aggregate in the samples using excipient pyridoxal phosphate.
# BSA [2] = target: T1, BSA; assay: Reduction of aggregation of BSA induced by t-butanol, SEC HPLC; format: physicochemical, Bovine; conditions: BSA precipitated with t-butanol, re-dissolved in PBS
# Protocol: To three separate test tubes containing 0.050 ml of BSA (35%, 0.85% sodium chloride) and 0.050 ml of phosphate buffer (50 mM, pH 7.4), were respectively added 0.010 ml of water, 0.010 mll of 2-formylbenzenesulfonic acid sodium salt (75 mg/ml, pH 8), and 0.010 ml of pyridoxal phosphate (100 mg/ml, pH 7.4). To each of the three tubes were then added 0.50 ml of PEG solution (75%, molecular weight 3400) followed by centrifugation to give some precipitate. The three supernatants were collected to have BSA at saturated concentrations, and to them were separately added 0.50 ml of t-butanol to have more BSA precipitates after centrifugation. The crops of precipitates from t-butanol were washed with t-butanol twice (0.75 ml each) and re-dissolved in PBS buffer (50 mM sodium phosphate, pH 7.4, 0.85% sodium chloride) for SEC HPLC analysis. Plain BSA produced about 75% of aggregates, the sample with 2-formylbenzenesulfonic acid produced about 60% of aggregates, the sample with pyridoxal phosphate produced less than 50% of aggregates.
# zinc-free bovine insulin = target: T2, zinc-free bovine insulin (Bos taurus, UniProt P01317); assay: Inhibition of insulin fibrillation by pyridoxal phosphate, rotator at 39° C.; format: physicochemical
# T2 construct: A solution of zinc-free bovine insulin was prepared in phosphate buffer
# T2 sequence (P01317 25-54 limits assumed): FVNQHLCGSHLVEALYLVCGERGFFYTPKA
# T2 sequence (P01317 85-105 limits assumed): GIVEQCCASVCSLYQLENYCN
# Protocol: A solution of zinc-free bovine insulin was prepared in phosphate buffer (50 mM, pH 7.4, no sodium chloride) at concentration of 1.2 mg/ml. Two aliquots of 2.0 ml each were transferred into two separate glass tubes (sanitized in boiling water), and 0.10 ml of water was added to one tube, and 0.10 ml of pyridoxal phosphate (100 mg/ml, in water, pH 7.4) was added to the other. Both tubes were capped and put on a rotator (12 rotations per minute) in an oven at temperature of 39° C.
# A solution of zinc-free bovine insulin was prepared in phosphate buffer (50 mM, pH 7.0, no sodium chloride) at concentration of 1.2 mg/ml. Two aliquots of 2.0 ml each were transferred into two separate glass tubes (sanitized in boiling water), and 0.10 ml of water was added to each tube. To 4.0 ml of the insulin solution was added 0.20 ml of pyridoxal phosphate (100 mg/ml, in water, pH 7.4) and the pH was adjusted to 7.0, and divided into two separate glass tubes (sanitized in boiling water). All the four tubes were capped and put on a rotator (12 rotations per minute) in an oven at temperature of 39° C.
# A solution of zinc-free bovine insulin (50 mg) was dissolved in 0.50 ml of 0.1 N hydrochloric acid, and neutralized using 0.1 N sodium hydroxide until it turned cloudy and clear again. Then 0.667 ml of pyridoxal phosphate solution (167 mg/ml, pH 7.0 in water) was added to the insulin solution, and the pH was re-adjusted to 7.4 using dilute sodium hydroxide. The total volume was adjusted to 2.5 ml with HPLC grade water. Serial dilution using water provided four samples (1.0 ml each) of insulin concentrations at 2.0, 5.0, 10, 15 mg/ml. All the four samples in glass vials, together with 0.5 ml of the remaining insulin-pyridoxal phosphate solution (20 mg/ml) were capped and put on a rotator (12 rotations per minute) in an oven at temperature of 39° C.
# T1 sequence (P02769 25-607): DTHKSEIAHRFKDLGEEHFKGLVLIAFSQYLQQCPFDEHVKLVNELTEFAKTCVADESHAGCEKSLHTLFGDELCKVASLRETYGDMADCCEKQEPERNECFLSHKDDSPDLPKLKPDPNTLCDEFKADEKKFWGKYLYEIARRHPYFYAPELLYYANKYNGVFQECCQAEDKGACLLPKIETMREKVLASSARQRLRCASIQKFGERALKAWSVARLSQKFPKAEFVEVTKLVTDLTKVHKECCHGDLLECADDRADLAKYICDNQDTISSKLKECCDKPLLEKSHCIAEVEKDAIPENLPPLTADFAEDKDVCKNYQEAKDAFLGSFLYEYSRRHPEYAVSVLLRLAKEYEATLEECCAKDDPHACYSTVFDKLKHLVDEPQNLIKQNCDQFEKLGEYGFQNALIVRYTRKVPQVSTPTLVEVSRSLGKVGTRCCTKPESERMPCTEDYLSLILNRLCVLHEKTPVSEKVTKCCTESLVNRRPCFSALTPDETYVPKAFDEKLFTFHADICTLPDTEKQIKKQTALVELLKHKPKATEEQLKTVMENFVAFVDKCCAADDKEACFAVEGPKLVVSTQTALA
smiles,measurement,setting,value
Cc1ncc(COP(=O)(O)O)c(C=O)c1O [pyridoxal phosphate],Fraction of BSA appearing as aggregate,BSA [1],a quarter
same,Aggregates produced,BSA [2],less than 50%
same,Appearance of insulin solution (fibrillation),"zinc-free bovine insulin; pH 7.0, insulin 1.2 mg/ml, 0.20 ml pyridoxal phosphate 100 mg/ml in 4.0 ml",still remained clear beyond four weeks
same,Appearance of insulin solution (fibrillation),"zinc-free bovine insulin; pH 7.4, insulin 1.2 mg/ml, 0.10 ml pyridoxal phosphate 100 mg/ml in 2.0 ml",still remained clear after five weeks
same,Appearance of insulin solution (fibrillation),"zinc-free bovine insulin; pH 7.4, insulin 2.0, 5.0, 10, 15 and 20 mg/ml with pyridoxal phosphate serially diluted",still remained clear after three weeks
